US20260191807A1, “COMPOSITIONS AND METHODS FOR TREATMENT OF PRADER-WILLI SYNDROME” (ERX Pharmaceuticals Inc., priority 2022, published 2026)

Test system: C57BL/6 mice
Test: Deaths and clinical signs, C57BL/6 DIO study
Format: in vivo
Conditions: C57BL/6 DIO mice treated Day 1 to Day 15; Celastrol 0.2 mg/kg IP
Description: C57BL/6 mice were treated with test compound (Celastrol) or controls as shown in the table below from Day 1 to Day 15. […] One mouse was excluded from the study because it appeared resistant to nestlet shredding prior to treatment.

Compound: CC1=C(O)C(=O)C=C2C1=CC=C1[C@@]2(C)CC[C@@]2(C)[C@@H]3C[C@](C)(C(=O)O)CC[C@]3(C)CC[C@]12C [Celastrol]
- deaths or abnormal clinical signs: No deaths or abnormal clinical signs
